From ChEMBL document CHEMBL1133618, “Synthesis and structure-activity relationships of 7-substituted 3-(2, 6-dichlorophenyl)-1,6-naphthyridin-2(1H)-ones as selective inhibitors of pp60(c-src)” (J Med Chem, 2000)

Assays:
[1] = biological target: Fibroblast growth factor receptor 1 (Homo sapiens, UniProt P11362); assay: Inhibitory activity against fibroblast growth factor receptor 1
[2] = biological target: Platelet-derived growth factor receptor beta (Mus musculus, UniProt P05622); assay: Inhibitory activity against mouse PDGF beta receptor tyrosine kinase
Platelet-derived growth factor receptor beta, sequence (P05622 whole entry): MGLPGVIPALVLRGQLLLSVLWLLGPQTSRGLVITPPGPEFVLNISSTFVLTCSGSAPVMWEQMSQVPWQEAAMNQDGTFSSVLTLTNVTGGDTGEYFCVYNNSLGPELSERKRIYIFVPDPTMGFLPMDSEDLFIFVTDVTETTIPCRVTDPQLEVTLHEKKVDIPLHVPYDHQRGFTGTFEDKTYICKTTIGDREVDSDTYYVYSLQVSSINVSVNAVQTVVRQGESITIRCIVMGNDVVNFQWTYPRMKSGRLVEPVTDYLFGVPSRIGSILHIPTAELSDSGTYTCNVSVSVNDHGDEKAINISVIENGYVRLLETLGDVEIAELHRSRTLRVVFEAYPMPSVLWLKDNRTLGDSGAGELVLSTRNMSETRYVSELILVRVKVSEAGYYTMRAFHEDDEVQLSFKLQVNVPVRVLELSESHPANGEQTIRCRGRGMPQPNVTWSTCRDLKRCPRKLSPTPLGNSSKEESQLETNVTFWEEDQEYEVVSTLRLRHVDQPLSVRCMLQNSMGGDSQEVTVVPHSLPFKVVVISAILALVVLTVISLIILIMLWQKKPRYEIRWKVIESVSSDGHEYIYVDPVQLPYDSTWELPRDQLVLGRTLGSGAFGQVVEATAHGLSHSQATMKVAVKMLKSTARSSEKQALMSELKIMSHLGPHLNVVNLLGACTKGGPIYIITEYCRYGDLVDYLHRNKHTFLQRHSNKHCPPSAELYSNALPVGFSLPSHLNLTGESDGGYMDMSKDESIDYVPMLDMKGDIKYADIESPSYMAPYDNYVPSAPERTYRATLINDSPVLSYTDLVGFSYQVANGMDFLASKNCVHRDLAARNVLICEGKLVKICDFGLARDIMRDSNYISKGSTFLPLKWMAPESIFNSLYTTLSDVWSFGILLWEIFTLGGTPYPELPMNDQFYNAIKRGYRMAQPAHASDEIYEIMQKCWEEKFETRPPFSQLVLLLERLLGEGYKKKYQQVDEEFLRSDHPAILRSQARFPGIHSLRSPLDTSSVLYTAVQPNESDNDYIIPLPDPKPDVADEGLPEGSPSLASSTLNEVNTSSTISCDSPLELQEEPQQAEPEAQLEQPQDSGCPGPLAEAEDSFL

HT-29 = assay: Inhibitory activity against HT-29 human colon adenocarcinoma cells was determined.; format: functional, cell-based
SW-620 = assay: Inhibitory activity against SW-620 human colon adenocarcinoma cells was determined.; format: functional, cell-based
HCT-8 = assay: Inhibitory activity against HCT-8 human colon adenocarcinoma cells was determined.; format: functional, cell-based
[3] = biological target: Proto-oncogene tyrosine-protein kinase Src (Gallus gallus) (UniProt P00523); assay: Inhibitory activity against avian c-Src tyrosine kinase was determined.

Fibroblast growth factor receptor 1, sequence (P11362 whole entry): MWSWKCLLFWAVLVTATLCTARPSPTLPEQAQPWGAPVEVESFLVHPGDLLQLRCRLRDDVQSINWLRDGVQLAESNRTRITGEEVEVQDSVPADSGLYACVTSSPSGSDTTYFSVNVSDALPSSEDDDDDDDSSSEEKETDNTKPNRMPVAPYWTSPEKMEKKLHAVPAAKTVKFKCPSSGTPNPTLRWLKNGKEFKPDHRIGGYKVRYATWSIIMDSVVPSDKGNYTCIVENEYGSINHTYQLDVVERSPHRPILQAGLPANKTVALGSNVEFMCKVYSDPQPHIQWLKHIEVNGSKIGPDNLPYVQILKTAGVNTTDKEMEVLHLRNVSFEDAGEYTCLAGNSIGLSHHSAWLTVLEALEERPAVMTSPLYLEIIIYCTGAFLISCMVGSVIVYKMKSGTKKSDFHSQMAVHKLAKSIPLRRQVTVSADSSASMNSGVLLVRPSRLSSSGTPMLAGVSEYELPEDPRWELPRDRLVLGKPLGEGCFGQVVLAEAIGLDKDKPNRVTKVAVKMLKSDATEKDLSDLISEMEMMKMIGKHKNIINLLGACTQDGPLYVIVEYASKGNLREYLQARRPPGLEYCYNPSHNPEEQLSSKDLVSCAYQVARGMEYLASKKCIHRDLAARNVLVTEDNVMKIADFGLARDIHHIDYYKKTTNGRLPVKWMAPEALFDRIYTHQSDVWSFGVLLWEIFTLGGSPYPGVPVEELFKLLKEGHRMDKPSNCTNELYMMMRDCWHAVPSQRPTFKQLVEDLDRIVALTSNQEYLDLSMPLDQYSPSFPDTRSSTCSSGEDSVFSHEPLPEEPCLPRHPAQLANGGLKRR

Row | Structure (SMILES) | IC50 [1] [nM] | IC50 [2] [nM] | IC50 (HT-29) [nM] | IC50 (SW-620) [nM] | IC50 (HCT-8) [nM] | IC50 [3] [nM]
1 | CCN(CC)CCCCNc1cc2c(cn1)cc(-c1c(Cl)cccc1Cl)c(=O)n2C | 80 | 2400 |  |  |  | 
2 | CN1CCN(CCOc2ccc(Nc3cc4c(cn3)cc(-c3c(Cl)cccc3Cl)c(=O)n4C)cc2)CC1 |  | 260 |  |  |  | 
3 | CCN(CC)CCCOc1ccc(Nc2cc3c(cn2)cc(-c2c(Cl)cccc2Cl)c(=O)n3C)cc1 | 250 | 360 |  |  |  | 
4 | Cn1c(=O)c(-c2c(Cl)cccc2Cl)cc2ccc(N)nc21 | > 50000 | > 50000 |  |  |  | 
5 | CN1CCN(CCCCNc2cc3c(cn2)cc(-c2c(Cl)cccc2Cl)c(=O)n3C)CC1 |  | 1100 | 1600 | 2600 | 2400 | 
6 | CN1CCN(CCCNc2ccc3cc(-c4c(Cl)cccc4Cl)c(=O)n(C)c3n2)CC1 | > 50000 | > 50000 |  |  |  | 
7 | Cn1c(=O)c(-c2c(Cl)cccc2Cl)cc2cnc(Nc3ccccc3)nc21 |  |  |  |  |  | 20
8 | COc1ccc(Nc2ccc3cc(-c4c(Cl)cccc4Cl)c(=O)n(C)c3n2)cc1 | > 50000 | > 50000 |  |  |  | 
9 | Cn1c(=O)c(-c2c(Cl)cccc2Cl)cc2cnc(Nc3ccccc3)cc21 | 2200 | 1400 |  |  |  | 
10 | CN1CCN(CCCNc2cc3c(cn2)cc(-c2c(Cl)cccc2Cl)c(=O)n3C)CC1 | 170 | 2800 | 2200 | 7600 | 2800 | 
11 | Cn1c(=O)c(-c2c(Cl)cccc2Cl)cc2cnc(Nc3ccncc3)cc21 | 3500 | 6900 | 3700 | 8700 | 7300 | 
12 | Cn1c(=O)c(-c2c(Cl)cccc2Cl)cc2cnc(Nc3ccc(N4CCOCC4)cc3)cc21 | 8700 | 2800 |  |  |  | 
13 | COc1ccc(Nc2ncc3cc(-c4c(Cl)cccc4Cl)c(=O)n(C)c3n2)cc1 |  |  |  |  |  | 20
14 | CCN(CC)CCCCCNc1cc2c(cn1)cc(-c1c(Cl)cccc1Cl)c(=O)n2C | 80 | 740 |  |  |  | 
15 | Cn1c(=O)c(-c2c(Cl)cccc2Cl)cc2cnc(N)nc21 |  |  |  | 2600 |  | 
16 | CN1CCN(CCCNc2cc3nc(O)c(-c4c(Cl)cccc4Cl)cc3cn2)CC1 | 72 | 1400 |  |  |  | 
17 | CCN(CC)CCCCNc1cc2nc(O)c(-c3c(Cl)cccc3Cl)cc2cn1 | 170 | 1100 |  |  |  | 
18 | CCN(CC)CCNc1ncc2cc(-c3c(Cl)cccc3Cl)c(=O)n(C)c2n1 | > 50000 | > 50000 |  |  |  | 
19 | Cn1c(=O)c(-c2c(Cl)cccc2Cl)cc2cnc(NCCCN3CCOCC3)cc21 |  | 5800 |  |  |  | 
20 | Cn1c(=O)c(-c2c(Cl)cccc2Cl)cc2cnc(Nc3ccc(N4CCOCC4)cc3)nc21 | 100 | 640 | 200 | 170 | 1500 | 
21 | CCN(CC)CCOc1ccc(Nc2ncc3cc(-c4c(Cl)cccc4Cl)c(=O)n(C)c3n2)cc1 [PD-0166285] |  |  | 280 | 270 | 420 | 
22 | Cn1c(=O)c(-c2c(Cl)cccc2Cl)cc2cnc(NCCCn3ccnc3)cc21 |  | 3200 |  |  |  | 

Row | Structure (SMILES) | IC50 [1] [nM] | IC50 [2] [nM] | IC50 (HT-29) [nM] | IC50 (SW-620) [nM] | IC50 (HCT-8) [nM] | IC50 [3] [nM]
23 | CCN(CC)C(=O)c1ccc(Nc2cc3c(cn2)cc(-c2c(Cl)cccc2Cl)c(=O)n3C)cc1 | 1900 | 16000 |  |  |  | 
24 | CNc1cc2c(cn1)cc(-c1c(Cl)cccc1Cl)c(=O)n2C | 210 | 8000 | 2800 |  | 1700 | 
25 | CN1CCN(CCCOc2ccc(Nc3cc4c(cn3)cc(-c3c(Cl)cccc3Cl)c(=O)n4C)cc2)CC1 |  | 900 |  |  |  | 
26 | CN1CCN(CCCCCNc2cc3c(cn2)cc(-c2c(Cl)cccc2Cl)c(=O)n3C)CC1 |  | 9900 |  |  |  | 
27 | Cn1c(=O)c(-c2c(Cl)cccc2Cl)cc2cnc(N)cc21 | 380 | 3600 | 1900 |  | 2200 | 
28 | CN(C)c1cc2c(cn1)cc(-c1c(Cl)cccc1Cl)c(=O)n2C | > 50000 | > 50000 |  |  |  | 
29 | CN1CCN(c2ccc(Nc3ncc4cc(-c5c(Cl)cccc5Cl)c(=O)n(C)c4n3)cc2)CC1 |  |  | 240 | 120 | 240 | 
30 | CCN(CC)CCCOc1ccc(Nc2cc3nc(O)c(-c4c(Cl)cccc4Cl)cc3cn2)cc1 | 440 | 790 |  |  |  | 
31 | CCN(CC)C(=O)c1ccc(Nc2ncc3cc(-c4c(Cl)cccc4Cl)c(=O)n(C)c3n2)cc1 | 180 | 290 |  |  |  | 
32 | CCN(CC)CCCNc1cc2c(cn1)cc(-c1c(Cl)cccc1Cl)c(=O)n2C | 150 | 4600 |  |  |  | 
33 | CN1CCN(c2ccc(Nc3cc4c(cn3)cc(-c3c(Cl)cccc3Cl)c(=O)n4C)cc2)CC1 |  |  | 830 | 4300 | 2100 | 
34 | CN1CCN(CCCNc2ncc3cc(-c4c(Cl)cccc4Cl)c(=O)n(C)c3n2)CC1 |  |  | 15000 | 7500 | 2500 | 150
35 | COc1ccc(Nc2cc3c(cn2)cc(-c2c(Cl)cccc2Cl)c(=O)n3C)cc1 | 2200 | 6800 |  |  |  | 
36 | CCN(CC)CCOc1ccc(Nc2ccc3cc(-c4c(Cl)cccc4Cl)c(=O)n(C)c3n2)cc1 | > 50000 | > 50000 |  |  |  | 
37 | CNc1ncc2cc(-c3c(Cl)cccc3Cl)c(=O)n(C)c2n1 |  |  | 4100 | 5000 | 7800 | 750
38 | CCN(CC)CCNc1cc2c(cn1)cc(-c1c(Cl)cccc1Cl)c(=O)n2C | 33000 | > 50000 |  |  |  | 
39 | Cn1c(=O)c(-c2c(Cl)cccc2Cl)cc2cnc(Nc3ccncc3)nc21 |  |  | 140 |  | 16000 | 10
40 | CN1CCN(CCCCCNc2ncc3cc(-c4c(Cl)cccc4Cl)c(=O)n(C)c3n2)CC1 |  |  |  |  |  | 60
41 | Cn1c(=O)c(-c2c(Cl)cccc2Cl)cc2ccc(Nc3ccccc3)nc21 | > 50000 | > 50000 |  |  |  | 
42 | CCN(CC)CCOc1ccc(Nc2cc3c(cn2)cc(-c2c(Cl)cccc2Cl)c(=O)n3C)cc1 |  | 100 | 750 | 6700 | 2800 | 
43 | CN1CCN(CCCCNc2ncc3cc(-c4c(Cl)cccc4Cl)c(=O)n(C)c3n2)CC1 |  |  |  | > 25000 | > 25000 | 
44 | CCN(CC)CCCNc1ccc2cc(-c3c(Cl)cccc3Cl)c(=O)n(C)c2n1 | > 50000 | > 50000 |  |  |  | 
